Results as given in article PMC9655618 (Cancers, 2022).

What was measured:
MCF-7 cells [1] = test: Drug combination assay with 4-OHTAM (MTT, Chou-Talalay); settings: for IC50: Homo sapiens, MCF7, 72 h, read-out: IC50, cell viability inhibition, single agent
Protocol: Cells were seeded at 5000 and 7500 cells, per well, respectively, and cell viability was assessed by MTT assays 72 h after treatment. Briefly, cells were incubated with constant ratio combinations of indicated test compounds by doubling dilutions of the individual drugs over a wide range of concentrations [43]. […] Dose-effect curves of the individual or combined compounds were plotted and assessed by the median effect method of Chou and Talalay [43] using Calcusyn software 2.0 (Biosoft, Cambridge, UK), thus obtaining the combination index (CI) values. CI values less than 1, equal to 1, and greater than 1 indicated synergism, addition, and antagonism, respectively.

SK-BR-3 cells = test: MTT cell viability assay; type: cell-based, human; settings: Homo sapiens, SK-BR-3, 72 h, 10%FBS growth media
Protocol: (§1) Straightforward, the tetrazolium salt 3-(4,5-methyltiazol-2yl-)-2,5diphenyl-tetrazolium bromide (MTT) (Applichen, Darmstadt, Germany) was added to cells, incubated for 2–4 h at 37 °C, and lysed in 10% SDS.

Ishikawa cells = test: MTT cell viability assay; type: cell-based, human; settings: Homo sapiens, Ishikawa, read-out: IC50 (μM) ISHIKAWA, 72 h, 10%FBS growth media
Protocol: as §1

Hs-578T cells = test: MTT cell viability assay; type: cell-based, human; settings: Homo sapiens, Hs-578T, 72 h, 10%FBS growth media
Protocol: as §1

MCF-7 cells [2] = test: MTT cell viability assay; type: cell-based, human; settings: Homo sapiens, MCF7, 72 h, 10%FBS growth media
Protocol: as §1

MCF-7/BUS cells = test: MTT cell viability assay; type: cell-based, human; settings: Homo sapiens, MCF7/BUS; 72 h, 10%FBS growth media, MTT; read-out: IC50 (μM) MCF-7/BUS
Protocol: as §1

BT-549 cells = test: MTT cell viability assay; type: cell-based, human; settings: Homo sapiens, BT-549, 72 h, 10%FBS growth media
Protocol: as §1

MDA-MB-231 cells = test: MTT cell viability assay; type: cell-based, human; settings: Homo sapiens, MDA-MB-231, 72 h, 10%FBS growth media
Protocol: as §1

MCF-10A cells = test: MTT cell viability assay; type: cell-based, human; settings: Homo sapiens, MCF-10A, 72 h, 10%FBS growth media
Protocol: as §1

[3] = tested on: androgen receptor (AR)-dependent transcriptional activity, MDA-kb2 cells; test: AR-mediated transcription, luciferase reporter in MDA-kb2 cells (testosterone); settings: 100 nM Testosterone; compounds 1–10 µM
PBMC = test: MTT cell viability assay; type: cell-based; settings: Homo sapiens, 72 h, 10%FBS growth media
Protocol: as §1

[4] = target: T1, ERα protein level in T47D cells (Homo sapiens, UniProt P03372); test: Immunoblotting; type: cell-based; settings: E2-non depleted T47D cells, 24, 48 and 72 h
T1 construct: from whole-cell extracts of T47D cells; endogenous in cells; host or cells: T47D
Protocol: Then, they were washed with ice-cold PBS supplemented with 1 mM ortovanadate and lysed with RIPA buffer containing protease and phosphatase inhibitors (Thermo Fisher Scientific, Waltham, MA, USA). Equal protein amounts were analyzed by SDS–PAGE, and transferred to nitrocellulose membranes (Thermo Fisher Scientific, Waltham, MA, USA), blocked with Tris-buffered saline/0.05% Tween 20 (TBS-T) containing 5% blotto (Merck, Darmstadt, Germany) or 5% BSA for total and phosphorylated proteins, respectively. Immunoblotting was carried out with mouse anti-ERα F-10 (Santa Cruz Biotech, Santa Cruz, CA, USA), rabbit total anti-STAT5 (Cell Signaling Technology, Leiden, The Netherlands) or mouse anti-polyubiquitin (EMD Millipore, Burlington, MA, USA). After washing, membranes were incubated with horseradish peroxidase-conjugated secondary antibodies (Bio-Rad) for 1 h at room temperature. The β-actin antibody (Santa Cruz Biotech, CA, USA) was used as the loading control. Finally, protein bands were visualized by using Clarity™ Western ECL Substrate (Bio-Rad) in the ChemiDoc XRS system (Bio-Rad) and were analyzed with Quantity One software (Bio-Rad).

[5] = tested on: T47D estrogen-depleted cells; test: E2-induced proliferation of estrogen-depleted cells (AUC of growth kinetics); type: cell-based; settings: E2-depleted conditions
Protocol: To monitor long-term growth, human ER+ BC (T47-D, MCF-7, MCF-7/BUS), ER+ endometrial (Ishiwaka, High Point, NC, USA), or non-malignant breast (MCF-10A) cells were seeded at 3000–6000 cells per well. […] When indicated, cells were estrogen-deprived in a 10DCC-FBS supplemented medium for one week. […] Cytotoxicity was monitored by using YOYO-1 (Invitrogen, Waltham, MA, USA). Cell proliferation and cytotoxicity were monitored by sequential real-time microphotographs in an IncuCyte HD real-time imaging system (Essen BioScience, Hertfordshire, UK) for 5–10 days. The area under the curve (AUC) was then analyzed to know both the kinetics and dose-effect relationships. […] Next, cells were treated with VEH (0.05% DMSO) or test compounds for 5–10 days. Spheroid size and cell cytotoxicity were recorded with the Incucyte SX5 Live-Cell Analysis Instrument (Sartorius AG, Göttingen, Germany). To calculate the spheroid growth area, confluence measurements were taken considering the largest brightfield object area (µm^2). Cytotoxicity was monitored by using YOYO-1 (Essen Bioscience, Hertfordshire, UK).

VERO cells = test: MTT cell viability assay; type: cell-based, monkey; settings: Primates, Vero, 72 h, 10%FBS growth media
Protocol: as §1

[6] = combination with 4-OHTAM, constant ratio, 72 h, CI <1 synergism

Row | SMILES | IC50 (MCF-7 cells [1]) [µM] | CI for ED25 (MCF-7 cells [1]; [6]) | CI for ED75 (MCF-7 cells [1]; [6]) | CI for ED90 (MCF-7 cells [1]; [6]) | IC50 (SK-BR-3 cells) [µM] | IC50 (Ishikawa cells) [µM] | IC50 (Hs-578T cells) [µM] | IC50 (MCF-7 cells [2]) [µM] | IC50 (MCF-7/BUS cells) [µM] | IC50 (BT-549 cells) [µM] | IC50 (MDA-MB-231 cells) [µM] | IC50 (MCF-10A cells) [µM] | effect on T-induced luciferase activity [3] | IC50 (PBMC) [µM] | effect on ERα protein level [4] | estrogenic effect on growth [5] | IC50 (VERO cells) [µM]
1 | Cc1ccc(C2=CC(O)(c3ccccc3)N(Cc3ccccc3)C2=O)cc1C (stereo not drawn) [compound 32, 1-benzyl-3-(3,4-dimethylphenyl)-5-hydroxy-5-phenyl-1H-pyrrol-2(5H)-one] | 0.69 | 0.762 ± 0.02 | 0.6725 ± 0.06 | 0.6395 ± 0.09 | 1.51 ± 0.09 | 0.27 ± 0.09 | > 10 | 2.54 ± 0.49 | 5.32 ± 2.09 | 4.89 ± 0.96 | 7.63 ± 2.38 | 0.08 | Neither 4-OHTAM nor compounds 32 or 35 displayed cross-activation | > 30 | needed a longer time of cell exposure | did not increase the growth of ER+ BC cells | 14.7 ± 1.31
2 | O=C1C(c2ccc([N+](=O)[O-])cc2)=CC(O)(c2ccccc2)N1Cc1ccccc1 (stereo not drawn) [compound 35, 1-benzyl-5-hydroxy-3-(4-nitrophenyl)-5-phenyl-1H-pyrrol-2(5H)-one] | 2.27 |  | 0.26 ± 0.07 | 0.32 ± 0.13 | 2 ± 0.18 | 1.29 ± 0.38 | 8.22 ± 1.78 | 2.59 ± 0.34 | 2.64 ± 0.88 | 4.19 | 9.08 ± 0.93 | 3.16 ± 0.09 | Neither 4-OHTAM nor compounds 32 or 35 displayed cross-activation | 17.3 ± 6.48 | dose-dependent (Figure 14B) decrease of ERα protein content | did not increase the growth of ER+ BC cells | 9.61 ± 0.16
